The results in this text go back to ChEMBL document CHEMBL5465560, “Selectivity Literature for EUbOPEN Chemogenomic Library” (2024).

The target in test [1] is T1, Ephrin type-B receptor 3 (Homo sapiens) (UniProt P54753).
T1 sequence (whole entry): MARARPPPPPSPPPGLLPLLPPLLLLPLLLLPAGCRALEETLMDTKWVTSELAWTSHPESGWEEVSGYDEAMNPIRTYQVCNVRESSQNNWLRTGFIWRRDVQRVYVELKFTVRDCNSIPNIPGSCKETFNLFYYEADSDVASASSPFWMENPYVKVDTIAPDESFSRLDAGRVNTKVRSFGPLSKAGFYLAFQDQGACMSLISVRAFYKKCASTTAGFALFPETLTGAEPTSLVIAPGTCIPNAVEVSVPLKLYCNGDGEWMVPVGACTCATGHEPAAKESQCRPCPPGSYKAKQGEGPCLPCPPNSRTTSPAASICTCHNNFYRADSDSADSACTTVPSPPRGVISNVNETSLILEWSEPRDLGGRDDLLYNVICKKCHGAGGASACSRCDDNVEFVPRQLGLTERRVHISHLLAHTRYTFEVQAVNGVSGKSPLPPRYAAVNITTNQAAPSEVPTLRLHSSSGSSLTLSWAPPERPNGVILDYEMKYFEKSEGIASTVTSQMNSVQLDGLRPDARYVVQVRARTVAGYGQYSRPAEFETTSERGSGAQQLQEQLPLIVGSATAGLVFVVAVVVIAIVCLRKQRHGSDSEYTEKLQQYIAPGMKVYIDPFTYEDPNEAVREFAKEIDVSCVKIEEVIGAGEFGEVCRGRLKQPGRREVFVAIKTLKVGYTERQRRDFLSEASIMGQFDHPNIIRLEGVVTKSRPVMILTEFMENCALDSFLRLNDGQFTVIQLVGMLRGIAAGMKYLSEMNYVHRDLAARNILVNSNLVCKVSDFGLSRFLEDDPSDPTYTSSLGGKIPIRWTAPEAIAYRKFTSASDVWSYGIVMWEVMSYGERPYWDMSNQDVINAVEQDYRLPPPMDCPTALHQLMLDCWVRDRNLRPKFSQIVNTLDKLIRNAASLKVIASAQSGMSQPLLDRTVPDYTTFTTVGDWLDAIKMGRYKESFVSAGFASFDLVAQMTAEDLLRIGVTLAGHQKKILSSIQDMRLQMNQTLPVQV
The conditions noted are these: at 10 µM.

Test [2] concerns the target Dual specificity tyrosine-phosphorylation-regulated kinase 1B (Homo sapiens, UniProt Q9Y463). Kind of test: Selectivity interaction (Ambit KINOMEscan and KiNATiv profiling in Jurkat cells) EUB0000090b DYRK1B. The class given is cell-based. Particulars: at 1 µM.
The target of test [3] is SRSF protein kinase 2 (Homo sapiens) (UniProt P78362). Kind of test: Selectivity interaction (KinomeScan (DiscoverX)) EUB0001079a SRPK2. The conditions noted are these: at 1 µM.
Test [4] concerns the target T2, Aurora kinase A (Homo sapiens) (UniProt O14965).
T2 sequence (whole entry): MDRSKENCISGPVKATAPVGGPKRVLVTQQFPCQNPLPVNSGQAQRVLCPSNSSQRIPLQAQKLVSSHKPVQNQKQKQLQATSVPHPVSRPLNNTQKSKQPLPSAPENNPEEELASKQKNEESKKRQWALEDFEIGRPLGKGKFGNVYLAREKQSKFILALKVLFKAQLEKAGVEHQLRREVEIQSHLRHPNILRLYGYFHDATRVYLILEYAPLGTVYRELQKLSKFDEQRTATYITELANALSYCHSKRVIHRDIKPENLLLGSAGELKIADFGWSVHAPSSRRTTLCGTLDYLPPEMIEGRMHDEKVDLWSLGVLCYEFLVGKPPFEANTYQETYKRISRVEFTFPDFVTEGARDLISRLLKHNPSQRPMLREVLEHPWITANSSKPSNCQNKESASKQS
Kind of test: Selectivity interaction (KinomeScan (DiscoverX)) EUB0000666a STK6. The conditions noted are these: at 10 µM.

In test [5] the target is Vascular endothelial growth factor receptor 2 (Homo sapiens, UniProt P35968). Kind of test: Selectivity interaction (Kinase panel (Z-LYTE Assay)) EUB0001632a KDR. The conditions noted are these: at 10 µM.
Test [6] addresses Proto-oncogene tyrosine-protein kinase Src (Homo sapiens, UniProt P12931). Kind of test: Selectivity interaction (Kinase panel (Invitrogen)) EUB0000639a SRC. Particulars: at 200 nM.
The target in test [7] is Tyrosine-protein kinase JAK1 (Homo sapiens, UniProt P23458). Kind of test: Selectivity interaction (ActivX KiNativ screen (kinase selectivity in THP-1 cell lysates)) EUB0000639a JAK1. The class given is subcellular. The conditions noted are these: lysate, at 0.04 µM.
Test [8] concerns the target T3, Serine/threonine-protein kinase BRSK2 (Homo sapiens) (UniProt Q8IWQ3).
T3 sequence (whole entry): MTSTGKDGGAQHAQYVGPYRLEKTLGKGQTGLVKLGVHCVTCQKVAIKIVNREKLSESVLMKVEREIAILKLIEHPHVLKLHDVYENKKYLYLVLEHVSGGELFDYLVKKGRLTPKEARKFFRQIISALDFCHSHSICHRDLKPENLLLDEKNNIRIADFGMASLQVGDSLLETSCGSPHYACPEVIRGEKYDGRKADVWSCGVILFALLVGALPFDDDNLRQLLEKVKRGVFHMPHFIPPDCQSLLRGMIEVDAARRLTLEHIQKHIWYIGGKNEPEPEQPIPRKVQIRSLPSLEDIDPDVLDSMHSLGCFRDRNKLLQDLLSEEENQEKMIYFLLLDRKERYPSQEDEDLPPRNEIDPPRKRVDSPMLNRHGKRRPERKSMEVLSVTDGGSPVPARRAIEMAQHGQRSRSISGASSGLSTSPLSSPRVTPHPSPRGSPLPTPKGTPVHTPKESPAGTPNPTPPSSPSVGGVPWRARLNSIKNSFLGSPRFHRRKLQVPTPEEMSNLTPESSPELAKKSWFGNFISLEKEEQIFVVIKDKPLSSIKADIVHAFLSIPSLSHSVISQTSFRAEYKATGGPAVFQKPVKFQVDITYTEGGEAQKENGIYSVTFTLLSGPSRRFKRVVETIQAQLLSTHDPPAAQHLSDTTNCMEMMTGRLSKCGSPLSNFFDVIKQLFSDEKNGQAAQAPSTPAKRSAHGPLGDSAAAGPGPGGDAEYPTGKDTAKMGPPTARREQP
Kind of test: Selectivity interaction (KinomeScan (DiscoverX)) EUB0000229b BRSK2. Particulars: at 10 µM.

Another test has as its target SRSF protein kinase 1 (Homo sapiens, UniProt Q96SB4). Nature of the test: Selectivity interaction (KinomeScan (DiscoverX)) EUB0001619a SRPK1. The conditions noted are these: at 1 µM.
For test [9], the target named is Casein kinase I isoform gamma-1 (Homo sapiens) (UniProt Q9HCP0). Nature of the test: Selectivity interaction (Kinase panel (KiNativ target engagement assay in Jurkat cells)) EUB0001635a CSNK1G1. The test is classed as cell-based. Particulars: at 1 µM.

SRSF protein kinase 1, sequence (Q96SB4 whole entry, canonical isoform): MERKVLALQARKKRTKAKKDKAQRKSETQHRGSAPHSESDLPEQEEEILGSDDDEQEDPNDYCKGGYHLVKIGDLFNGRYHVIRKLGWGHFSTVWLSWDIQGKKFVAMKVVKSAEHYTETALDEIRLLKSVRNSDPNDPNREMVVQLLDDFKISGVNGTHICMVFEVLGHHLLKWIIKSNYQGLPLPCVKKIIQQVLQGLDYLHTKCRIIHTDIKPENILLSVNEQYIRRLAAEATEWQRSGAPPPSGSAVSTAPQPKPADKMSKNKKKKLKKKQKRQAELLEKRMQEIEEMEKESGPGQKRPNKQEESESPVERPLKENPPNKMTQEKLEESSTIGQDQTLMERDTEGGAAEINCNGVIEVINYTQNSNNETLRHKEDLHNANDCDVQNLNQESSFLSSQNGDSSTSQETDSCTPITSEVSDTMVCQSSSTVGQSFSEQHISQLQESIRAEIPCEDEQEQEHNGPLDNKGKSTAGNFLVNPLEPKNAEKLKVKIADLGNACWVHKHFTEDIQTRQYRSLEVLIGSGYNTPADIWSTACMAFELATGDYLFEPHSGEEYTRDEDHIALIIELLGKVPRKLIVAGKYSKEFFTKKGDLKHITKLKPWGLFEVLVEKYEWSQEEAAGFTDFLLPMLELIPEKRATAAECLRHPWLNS
Dual specificity tyrosine-phosphorylation-regulated kinase 1B, sequence (Q9Y463 whole entry, looked up): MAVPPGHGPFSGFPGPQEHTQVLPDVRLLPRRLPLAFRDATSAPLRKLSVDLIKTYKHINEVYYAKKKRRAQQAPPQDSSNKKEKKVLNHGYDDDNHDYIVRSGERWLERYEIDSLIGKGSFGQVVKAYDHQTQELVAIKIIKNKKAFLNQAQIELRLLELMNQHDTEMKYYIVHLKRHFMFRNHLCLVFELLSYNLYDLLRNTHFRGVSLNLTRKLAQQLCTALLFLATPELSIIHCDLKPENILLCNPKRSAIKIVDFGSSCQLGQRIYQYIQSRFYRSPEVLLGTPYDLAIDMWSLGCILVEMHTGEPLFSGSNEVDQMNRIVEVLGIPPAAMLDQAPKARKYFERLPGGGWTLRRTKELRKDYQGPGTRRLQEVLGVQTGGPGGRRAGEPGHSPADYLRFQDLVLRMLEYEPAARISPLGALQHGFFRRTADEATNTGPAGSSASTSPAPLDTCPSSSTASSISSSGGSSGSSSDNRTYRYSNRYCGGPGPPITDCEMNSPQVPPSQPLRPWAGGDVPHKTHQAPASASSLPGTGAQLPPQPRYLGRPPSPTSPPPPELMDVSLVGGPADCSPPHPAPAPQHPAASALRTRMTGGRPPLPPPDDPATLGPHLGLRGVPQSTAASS
Vascular endothelial growth factor receptor 2, sequence (P35968 whole entry): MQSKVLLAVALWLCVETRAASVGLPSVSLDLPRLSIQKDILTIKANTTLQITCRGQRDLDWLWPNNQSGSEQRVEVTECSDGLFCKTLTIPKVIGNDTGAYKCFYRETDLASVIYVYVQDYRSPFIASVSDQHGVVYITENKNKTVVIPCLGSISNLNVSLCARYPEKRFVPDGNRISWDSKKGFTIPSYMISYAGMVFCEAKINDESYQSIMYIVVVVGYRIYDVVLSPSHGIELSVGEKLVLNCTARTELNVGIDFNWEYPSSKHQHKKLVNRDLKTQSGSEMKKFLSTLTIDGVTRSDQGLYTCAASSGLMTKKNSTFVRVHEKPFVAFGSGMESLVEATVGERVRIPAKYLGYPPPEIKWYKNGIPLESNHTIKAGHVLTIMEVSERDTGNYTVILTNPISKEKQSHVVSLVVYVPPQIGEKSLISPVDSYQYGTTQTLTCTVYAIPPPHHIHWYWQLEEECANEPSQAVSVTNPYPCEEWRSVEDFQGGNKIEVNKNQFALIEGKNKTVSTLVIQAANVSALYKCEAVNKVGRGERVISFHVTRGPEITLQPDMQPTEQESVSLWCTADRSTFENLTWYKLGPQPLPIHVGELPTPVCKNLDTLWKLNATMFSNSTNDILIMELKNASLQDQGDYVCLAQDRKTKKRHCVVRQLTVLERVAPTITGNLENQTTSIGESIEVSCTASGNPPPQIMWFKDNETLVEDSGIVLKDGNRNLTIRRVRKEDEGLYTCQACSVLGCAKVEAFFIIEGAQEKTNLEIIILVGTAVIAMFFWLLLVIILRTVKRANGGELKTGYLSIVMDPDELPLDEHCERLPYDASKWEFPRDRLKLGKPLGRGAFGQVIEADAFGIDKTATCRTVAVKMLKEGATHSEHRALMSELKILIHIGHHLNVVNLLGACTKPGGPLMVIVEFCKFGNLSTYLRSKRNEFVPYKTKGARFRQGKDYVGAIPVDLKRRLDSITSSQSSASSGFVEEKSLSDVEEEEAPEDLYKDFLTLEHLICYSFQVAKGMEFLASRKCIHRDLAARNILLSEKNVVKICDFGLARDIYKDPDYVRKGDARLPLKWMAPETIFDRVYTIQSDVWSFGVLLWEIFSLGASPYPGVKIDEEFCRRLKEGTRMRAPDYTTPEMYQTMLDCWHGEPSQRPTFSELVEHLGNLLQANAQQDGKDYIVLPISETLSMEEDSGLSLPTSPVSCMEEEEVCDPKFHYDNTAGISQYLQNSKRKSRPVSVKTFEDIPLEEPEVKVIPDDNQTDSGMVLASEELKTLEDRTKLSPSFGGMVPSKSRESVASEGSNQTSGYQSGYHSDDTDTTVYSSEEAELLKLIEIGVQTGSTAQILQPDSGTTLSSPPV
SRSF protein kinase 2 (Homo sapiens), sequence (P78362 whole entry, looked up): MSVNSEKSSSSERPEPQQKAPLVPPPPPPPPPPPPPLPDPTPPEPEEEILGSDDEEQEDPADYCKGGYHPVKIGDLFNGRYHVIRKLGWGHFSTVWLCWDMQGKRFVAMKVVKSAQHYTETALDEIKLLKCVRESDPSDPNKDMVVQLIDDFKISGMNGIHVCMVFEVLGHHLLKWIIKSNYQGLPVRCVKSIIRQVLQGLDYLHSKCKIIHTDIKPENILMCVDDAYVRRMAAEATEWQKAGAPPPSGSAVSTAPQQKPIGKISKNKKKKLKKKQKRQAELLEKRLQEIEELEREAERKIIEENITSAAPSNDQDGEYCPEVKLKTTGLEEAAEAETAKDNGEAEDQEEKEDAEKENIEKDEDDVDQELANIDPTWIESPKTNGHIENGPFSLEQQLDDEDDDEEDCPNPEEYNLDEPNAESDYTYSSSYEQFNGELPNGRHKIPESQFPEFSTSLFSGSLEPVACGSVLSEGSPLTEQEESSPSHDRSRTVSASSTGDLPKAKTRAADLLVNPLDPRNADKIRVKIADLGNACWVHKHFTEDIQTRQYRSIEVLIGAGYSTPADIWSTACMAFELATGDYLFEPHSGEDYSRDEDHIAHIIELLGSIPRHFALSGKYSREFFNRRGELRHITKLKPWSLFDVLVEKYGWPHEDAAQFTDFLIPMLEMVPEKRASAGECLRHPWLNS
Proto-oncogene tyrosine-protein kinase Src, sequence (P12931 2-536 limits assumed): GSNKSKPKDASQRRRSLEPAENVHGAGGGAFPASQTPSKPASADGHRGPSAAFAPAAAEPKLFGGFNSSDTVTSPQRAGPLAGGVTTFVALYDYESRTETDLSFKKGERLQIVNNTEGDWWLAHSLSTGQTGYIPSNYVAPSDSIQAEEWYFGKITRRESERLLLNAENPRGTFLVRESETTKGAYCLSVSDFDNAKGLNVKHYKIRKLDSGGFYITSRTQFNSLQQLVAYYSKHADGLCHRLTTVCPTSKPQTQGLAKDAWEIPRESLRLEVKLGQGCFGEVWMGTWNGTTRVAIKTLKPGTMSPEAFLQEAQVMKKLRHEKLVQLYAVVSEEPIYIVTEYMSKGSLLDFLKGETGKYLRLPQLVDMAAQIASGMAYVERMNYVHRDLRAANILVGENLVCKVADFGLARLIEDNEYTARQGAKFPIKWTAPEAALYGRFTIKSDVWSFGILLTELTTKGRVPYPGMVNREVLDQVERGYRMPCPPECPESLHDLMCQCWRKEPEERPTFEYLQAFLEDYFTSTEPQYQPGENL
Tyrosine-protein kinase JAK1, sequence (P23458 whole entry): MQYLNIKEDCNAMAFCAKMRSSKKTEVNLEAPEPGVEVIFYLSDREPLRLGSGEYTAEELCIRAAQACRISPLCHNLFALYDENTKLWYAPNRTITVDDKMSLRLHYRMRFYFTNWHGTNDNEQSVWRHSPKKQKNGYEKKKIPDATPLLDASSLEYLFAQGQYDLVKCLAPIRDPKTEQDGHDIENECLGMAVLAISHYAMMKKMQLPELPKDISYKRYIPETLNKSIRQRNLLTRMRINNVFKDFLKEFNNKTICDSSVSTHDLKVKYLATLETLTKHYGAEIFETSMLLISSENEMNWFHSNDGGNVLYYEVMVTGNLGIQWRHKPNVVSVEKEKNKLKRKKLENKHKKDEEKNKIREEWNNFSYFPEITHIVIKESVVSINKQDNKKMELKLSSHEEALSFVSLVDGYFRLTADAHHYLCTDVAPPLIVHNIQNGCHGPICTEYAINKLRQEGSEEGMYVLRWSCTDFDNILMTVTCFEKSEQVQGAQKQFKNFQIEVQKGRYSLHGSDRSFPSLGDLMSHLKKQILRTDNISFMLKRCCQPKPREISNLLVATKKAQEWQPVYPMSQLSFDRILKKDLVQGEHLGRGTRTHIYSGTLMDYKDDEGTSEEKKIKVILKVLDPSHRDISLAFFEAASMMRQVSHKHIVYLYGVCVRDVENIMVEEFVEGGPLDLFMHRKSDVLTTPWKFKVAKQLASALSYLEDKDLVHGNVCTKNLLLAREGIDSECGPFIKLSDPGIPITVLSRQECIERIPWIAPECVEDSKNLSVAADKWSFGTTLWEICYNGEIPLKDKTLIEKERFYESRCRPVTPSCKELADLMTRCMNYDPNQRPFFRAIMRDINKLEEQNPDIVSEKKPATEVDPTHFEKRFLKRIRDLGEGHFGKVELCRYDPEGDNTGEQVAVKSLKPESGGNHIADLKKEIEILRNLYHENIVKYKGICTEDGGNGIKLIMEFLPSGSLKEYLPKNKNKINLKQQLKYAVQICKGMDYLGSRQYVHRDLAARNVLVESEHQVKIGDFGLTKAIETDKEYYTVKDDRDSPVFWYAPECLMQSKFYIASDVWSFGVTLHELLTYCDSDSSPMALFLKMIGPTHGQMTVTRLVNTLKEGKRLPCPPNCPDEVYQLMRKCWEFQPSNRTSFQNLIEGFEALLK

In test [1], `Cc1cc([C@@H](C)Nc2ccccc2C(=O)O)c2nc(N3CCOCC3)cc(=O)n2c1` [AZD-6482] returned a % of control of 100%.

In turn, `CN(C)C/C=C/C(=O)Nc1ccc(C(=O)N2CCCC(Nc3ncc(Cl)c(-c4c[nH]c5ccccc45)n3)C2)cc1` (stereo not given) yielded a % of control in test [2] of 6.1%.

Regarding `Nc1cnc(N2CCc3cc(S(=O)(=O)Nc4c(F)cc(Cl)cc4F)cc(N4CCCC4=O)c32)nc1` [TP-020n], the % of control in [3] amounted to 100%.

Compound `O=C(NOC[C@H](O)CO)c1ccc(F)c(F)c1Nc1ccc(I)cc1F` registered a % of control in [4] of 100%.

For the compound `Cn1cc(-n2cnc3c(NCc4nc5cc(Cl)c(Cl)cc5[nH]4)nc(N4CCOCC4)nc32)cn1`, in test [5], the % of control turned out to be 0.298%.

With `CC[C@@H]1[C@H](F)C(=O)N[C@@H]1COc1nccc2cc(C(N)=O)c(OC)cc12` [ZIMLOVISERTIB], the values for the % of inhibition in test [6] and in [7] were 14.4% and -11.6%, respectively.

In turn, `COc1cc(N(C)c2ccnc3ccc(C(F)(F)F)cc23)cc(OC)c1OC` showed a % binding in test [8] of 90%.

In turn, `N#Cc1cccc(-c2c[nH]c3ncnc(N4CCOCC4)c23)c1` came in with a % of control at SRSF protein kinase 1 of 25%.

With `C=CC(=O)Nc1ccc(C(=O)Nc2[nH]nc3c2CN(C(=O)N[C@H](CN(C)C)c2ccccc2)C3(C)C)cc1`, the % of engagement in [9] was -7.7%.
